Values after ≈ are worked out from the molar mass of the structure shown.
Legend:
physchem = settings: aqueous buffer
[1] = Solubility of DHPS and its degradation species

Structure (SMILES)	solubility (physchem) [mM]	solubility in a DHPS solution ([1]; DHPS solution up to 0.5 M)	solubility ([1]; aqueous buffer) [mM]
Oc1cc2nc3ccccc3nc2cc1O [DHP, Dihydroxyphenazine]	200 to 400 (≈ 42.4 to 84.9 mg/mL)	–	–
O=S(=O)(O)c1ccc2nc3cc(O)c(O)cc3nc2c1 [DHPS, 7,8-Dihydroxyphenazinesulfonic acid]	1400 to 1600 (≈ 409 to 468 mg/mL)	–	–
Oc1ccc2nc3ccccc3nc2c1 [MHP, Monohydroxyphenazine]	–	does not change significantly	100 to 300 (≈ 19.6 to 58.9 mg/mL)
